Results reported in the OPERA property sets (Mansouri et al. 2018).

Settings: 25.0 °C

Row | Structure (SMILES) | log10 OH rate constant (cm³/molecule/s)
1 | Clc1ccc(Cl)c(-c2cccc(Cl)c2Cl)c1 | -12.1
2 | Clc1ccc(-c2cc(Cl)ccc2Cl)cc1 | -11.9
3 | Clc1ccc(-c2ccc(Cl)cc2Cl)cc1 | -12
4 | Clc1ccc(-c2ccc(Cl)cc2Cl)c(Cl)c1 | -12
5 | Clc1ccc(-c2ccccc2)c(Cl)c1 | -11.6
6 | Clc1ccc(Cl)c(-c2c(Cl)ccc(Cl)c2Cl)c1 | -12.4
7 | Clc1ccc(-c2ccccc2Cl)cc1Cl | -12
8 | Clc1c(Cl)c(Cl)c(-c2ccccc2)c(Cl)c1Cl | -12
9 | Clc1ccc(-c2c(Cl)ccc(Cl)c2Cl)cc1Cl | -12.2
10 | Clc1cc(Cl)c(-c2ccccc2)cc1Cl | -11.9
